In the test the target is T1, human CGT (Homo sapiens, UniProt Q16880).
T1 sequence (Q16880 21-541): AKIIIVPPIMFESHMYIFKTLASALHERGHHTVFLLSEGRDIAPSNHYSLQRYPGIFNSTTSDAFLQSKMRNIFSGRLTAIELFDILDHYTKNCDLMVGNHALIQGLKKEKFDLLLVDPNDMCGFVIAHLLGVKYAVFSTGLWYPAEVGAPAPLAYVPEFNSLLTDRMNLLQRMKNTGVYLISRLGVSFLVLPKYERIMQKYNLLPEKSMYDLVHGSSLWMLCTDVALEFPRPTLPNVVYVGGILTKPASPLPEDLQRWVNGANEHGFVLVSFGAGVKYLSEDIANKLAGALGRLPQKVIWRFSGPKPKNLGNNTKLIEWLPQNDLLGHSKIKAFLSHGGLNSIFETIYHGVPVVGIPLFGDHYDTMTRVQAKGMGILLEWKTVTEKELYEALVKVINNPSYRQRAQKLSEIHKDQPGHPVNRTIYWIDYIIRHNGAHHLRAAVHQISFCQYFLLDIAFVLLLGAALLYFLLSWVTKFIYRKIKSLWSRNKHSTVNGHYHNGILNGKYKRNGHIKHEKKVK
Description: CGT Enzyme Assay (Biological Example 2, RapidFire/MS/MS method with 0.01% Tween 80 added). It counts as biochemical. Conditions: enzymatic assay, CHO/CGT lysate. The essentials:
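Lysate of CHO cells transfected with full-length human CGT, 0.5% DMSO final, 0.01% Tween 80 added; reactions stopped with methanol:acetonitrile holding internal standard. C6-NBD-dihydro-galactosylceramide and C6-NBD-dihydro-ceramide measured by RapidFire/MS/MS (ESI negative), product peak area normalized to internal standard.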

`COC[C@@]1(C)[C@@H](c2cccc(OC(F)(F)F)c2)N(c2ccc(Cl)cc2)C(=O)N1c1ccc(Cl)cc1` [Example 37-1, (4R,5R)-1,3-bis(4-chlorophenyl)-4-(methoxymethyl)-4-methyl-5-(3-(trifluoromethoxy)phenyl)imidazolidin-2-one]: the IC50 fell in the range of 1 to 10 µM.

Consider `CC[C@@]1(C)[C@@H](c2cccc(OC(F)(F)F)c2)N(c2ccc(C#N)cc2)C(=O)N1c1ccc(C#N)cc1` [Example 51-6, 4,4′-((4S,5R)-4-ethyl-4-methyl-2-oxo-5-(3-(trifluoromethoxy)phenyl)imidazolidine-1,3-diyl)dibenzonitrile], for which the IC50 lay within 10 to 30 µM.

As to `O=C1N(c2ccc(Cl)cc2)[C@@H](c2cccc(OC(F)(F)F)c2)C2(CCCC2)N1c1ccc(Cl)cc1` [Example 15-3, (S)-1,3-bis(4-chlorophenyl)-4-(3-(trifluoromethoxy)phenyl)-1,3-diazaspiro[4.4]nonan-2-one], the IC50 is 10 to 30 µM.

Regarding `Cc1ccc(N2C(=O)N(c3ccc(C)cc3)C3(CCCC3)[C@@H]2c2cccc(OC(F)(F)F)c2)cc1` [Example 35-2, (S)-1,3-di-p-tolyl-4-(3-(trifluoromethoxy)phenyl)-1,3-diazaspiro[4.4]nonan-2-one], the 50% inhibitory concentration (IC50) is below 1 µM.

`CC1(C)[C@@H](c2cccc(OC(F)F)c2)N(c2ccc(Cl)cc2)C(=O)N1c1ccc(Cl)cc1` [Example 9-1, (R)-1,3-bis(4-chlorophenyl)-5-(3-(difluoromethoxy)phenyl)-4,4-dimethylimidazolidin-2-one] gave a half-inhibitory concentration (IC50) of 10 to 30 µM.

`N#Cc1ccc(N2C(=O)N(c3ccc(Cl)cc3)C3(COC3)[C@H]2c2cccc(OC(F)(F)F)c2)cc1` [Example 47-1, (R)-4-(5-(4-chlorophenyl)-6-oxo-8-(3-(trifluoromethoxy)phenyl)-2-oxa-5,7-diazaspiro[3.4]octan-7-yl)benzonitrile] displayed an IC50 of 10 to 30 µM.

Regarding `C[C@@]1(C(F)(F)F)[C@H](c2cccc(OC(F)(F)F)c2)N(c2ccc(Br)cc2)C(=O)N1c1ccc(C#N)cc1` [Example 44-1, 4-((4S,5S)-3-(4-bromophenyl)-5-methyl-2-oxo-4-(3-(trifluoromethoxy)phenyl)-5-(trifluoromethyl)imidazolidin-1-yl)benzonitrile], the IC50 is 1 to 10 µM.

For the compound `CC1(C)C(c2cccc(Cl)c2)N(c2ccc(Cl)cc2)C(=O)N1c1ccc(Cl)cc1` (stereo not shown) [Example 8], the IC50 is below 1 µM.

`N#Cc1ccc(N2C(=O)N(c3ccc(Cl)cc3)C3(COC3)[C@@H]2c2cccc(OC(F)(F)F)c2)cc1` [Example 47-2, (S)-4-(5-(4-chlorophenyl)-6-oxo-8-(3-(trifluoromethoxy)phenyl)-2-oxa-5,7-diazaspiro[3.4]octan-7-yl)benzonitrile] came in with an IC50 below 1 µM.

`CC[C@]1(C)[C@@H](c2cccc(OC(F)(F)F)c2)N(c2ccc(Cl)cc2)C(=O)N1c1ccc(Cl)cc1` [Example 19-1, (4R,5R)-1,3-bis(4-chlorophenyl)-4-ethyl-4-methyl-5-(3-(trifluoromethoxy)phenyl)imidazolidin-2-one] returned an IC50 of 1 to 10 µM.

Compound `CC[C@@]1(C)[C@H](c2cccc(C#N)c2)N(c2ccc(Cl)cc2)C(=O)N1c1ccc(Cl)cc1` [Example 34-1, 3-((4S,5S)-1,3-bis(4-chlorophenyl)-5-ethyl-5-methyl-2-oxoimidazolidin-4-yl)benzonitrile] came in with an IC50 below 1 µM.

With `N#Cc1cccc([C@@H]2N(c3ccc(Cl)cc3)C(=O)N(c3ccc(Cl)cc3)C23COC3)c1` [Example 30-2, (S)-3-(5,7-bis(4-chlorophenyl)-6-oxo-2-oxa-5,7-diazaspiro[3.4]octan-8-yl)benzonitrile], the 50% inhibitory concentration (IC50) was below 1 µM.

With `CC1(C)[C@H](c2cccc(C#N)c2)N(c2ccc(C(F)(F)F)cc2)C(=O)N1c1ccc(C(F)(F)F)cc1` [Example 24-2, (S)-3-(5,5-dimethyl-2-oxo-1,3-bis(4-(trifluoromethyl)phenyl)imidazolidin-4-yl)benzonitrile], the half-maximal inhibitory concentration (IC50) was in the range of 10 to 30 µM.

Compound `C[C@@H]1[C@@H](c2ccccc2)N(c2ccc(Br)cc2)C(=O)N1c1ccc(Br)cc1` [Example 2-2, (4R,5R)-1,3-bis(4-bromophenyl)-4-methyl-5-phenylimidazolidin-2-one] returned an IC50 below 1 µM.

`CCC[C@]1(C)[C@H](c2cccc(OC(F)(F)F)c2)N(c2ccc(Cl)cc2)C(=O)N1c1ccc(Cl)cc1` [Example 22-3, (4R,5S)-1,3-bis(4-chlorophenyl)-4-methyl-4-propyl-5-(3-(trifluoromethoxy)phenyl)imidazolidin-2-one]: the IC50 is below 1 µM.

Consider `C[C@]1(C(F)(F)F)[C@@H](c2cccc(OC(F)(F)F)c2)N(c2ccc(C#N)cc2)C(=O)N1c1ccc(C#N)cc1` [Example 39-2, 4,4′-((4R,5R)-4-methyl-2-oxo-5-(3-(trifluoromethoxy)phenyl)-4-(trifluoromethyl)imidazolidine-1,3-diyl)dibenzonitrile], for which the IC50 was in the range of 10 to 30 µM.

Take `CC[C@]1(C)[C@H](c2cccc(OC(F)(F)F)c2)N(c2ccc(Cl)cc2)C(=O)N1c1ccc(Cl)cc1` [Example 19-2, (4R,5S)-1,3-bis(4-chlorophenyl)-4-ethyl-4-methyl-5-(3-(trifluoromethoxy)phenyl)imidazolidin-2-one]: the IC50 was below 1 µM.

With `Cc1ccc(N2C(=O)N(c3ccc(C)cc3)C3(COC3)[C@@H]2c2cccc(C#N)c2)cc1` [Example 32-2, (S)-3-(6-oxo-5,7-di-p-tolyl-2-oxa-5,7-diazaspiro[3.4]octan-8-yl)benzonitrile], the IC50 was below 1 µM.

The compound `Cc1ccc(N2C(=O)N(c3ccc(C#N)cc3)C3(COC3)[C@@H]2c2cccc(C#N)c2)cc1` [Example 57-2, (S)-3-(5-(4-cyanophenyl)-6-oxo-7-(p-tolyl)-2-oxa-5,7-diazaspiro[3.4]octan-8-yl)benzonitrile] gave an IC50 below 1 µM.

These data come from patent US20190134005A1 (BioMarin Pharmaceutical Inc., priority 2016, published 2019).
